Laboratory results taken from paper PMC11438102, “Modulation of cannabinoid receptor 2 alters neuroinflammation and reduces formation of alpha-synuclein aggregates in a rat model of nigral synucleinopathy” (Journal of Neuroinflammation, 2024).

Tests used:
[1] = test system: human Asyn (pSer129, proteinase K-resistant, total) in substantia nigra; test: Immunohistochemistry of Asyn species in substantia nigra, optical density; assay type: in vivo; conditions: rat low cohort, 6 mg/kg i.p. daily 7 weeks
Method: Rats were administered unilateral injections of AAV2/5-human wild-type (WT) Asyn at titers of 2.9–4.3 × 10^11 vector genomes (vg)/mL (termed “low cohort”), which was previously shown to not induce nigral neurotoxicity [27]. Thereby, generating a model with overexpression of human WT Asyn and Asyn-mediated neuroinflammation. One week after surgery, animals were randomly selected to receive daily systemic injections of either SMM-189 (intraperitoneal (i.p.), 6 mg/kg, n = 12) or vehicle (i.p., n = 12) and followed for 8 weeks (Figs. 1; n = 2 rats per group were removed due to poor nigral targeting). […] After blood collection, animals were transcardially perfused with ice-cold PBS and the frontal cortex frozen for gene analysis, the striatum frozen for western blotting analysis, and the midbrain post-fixated in 4% PFA to be processed for immunohistochemistry. A second low cohort of rats (SMM-189 n = 6 or vehicle n = 3 with n = 2 removed due to poor nigral targeting) completed the study and provided extra tissue to perform additional immunohistochemical and western blotting analyses.
Brains were post-fixed in 4%PFA for 48 h and transferred to 30% sucrose and cut at 40 μm on a freezing microtome. In brief, endogenous peroxidase was quenched with 3% hydrogen peroxide, blocked with 8% normal serum, avidin (Vector Cat#SP-2001) and 0.1% Triton-X and incubated overnight at 4°C with biotin (Vectorlabs Cat#SP-2001), normal serum and primary antibodies specific for Asyn (Clone 4B12; BioLegend Cat# 807801, RRID: AB_2564730), pSer129 Asyn (Clone EP1536Y; Abcam Cat# ab51253, RRID: AB_869973), CD68 (Bio-Rad Cat# MCA341R, RRID: AB_2291300), MHCII (Bio-Rad Cat# MCA46GA, RRID: AB_567369), and CD163 (Bio-Rad Cat# MCA342A, RRID: AB_2074557). Tissue was incubated in appropriate biotinylated secondary antibodies (1:200), amplified with Vectastain ABC kit (Vectorlabs Cat#PK-6100) and developed with diaminobenzidine tablets or diaminobenzidine drop kit with nickel (Vector Cat#SK-4100) for CD68 immunostaining. […]

[2] = test system: brain immune cells; test: Multicolor flow cytometry of brain immune cells (high cohort); assay type: in vivo, rat
Method: An additional cohort of rats (termed “high cohort”) was evaluated to determine effects of SMM-189 on immune cell populations in the brain, resident or infiltrating, and the periphery as measured by flow cytometry (Fig. 1). To ensure infiltrating peripheral immune cells, rats were stereotaxically injected with a higher titer of AAV2/5-human WT Asyn (4.6 × 10^12 vg/mL) and underwent an identical drug treatment timeline with animals sacrificed at 4 (SMM-189: n = 5; vehicle: n = 6) and 8 weeks (SMM-189: n = 7; vehicle: n = 7). At sacrifice, animals were deeply anesthetized with euthasol (i.p., 150 mg/kg) and rapid decapitation performed using a sharp guillotine. Brains were collected at endpoints, and brain immune cells isolated and evaluated using multicolor flow cytometry. Additionally, blood was collected at baseline, 4 and 8 weeks (SMM-189: n = 13; vehicle: n = 13) after stereotaxic surgery for PBMCs isolation to immunophenotype using flow cytometry and for plasma evaluation of SMM-189.
Brains were collected from animals in the high cohort at either 4 or 8 weeks after AAV2/5-human WT Asyn and brain immune cells were isolated from individual hemispheres as previously described. Hemispheres were finely cut in RPMI 1640 media (Gibco Cat#11875-093) with a scalpel blade and enzymatically dissociated with collagenase VIII (1.4U/mL; Sigma Cat#C2139) and DNAse1 (1 mg/mL; Sigma Cat#DN25) in 37°C for 15 min. Enzymes were neutralized with 10%FBS (heat inactivated, Atlanta Biologicals Cat#S11150) in RPMI 1640 complete media and centrifuged 400g at room temperature. Tissue was resuspended in 1x HBSS and mechanically dissociated using a fire-polished Pasteur pipette until a cell suspension was generated. The suspension was passed through a 70µM cell strainer and strainers rinsed twice with 1x HBSS. To remove myelin, the strained suspension was centrifuged at 300g at 4 °C for 5 min and resuspended in 37% percoll and layered between 70% and 30% percoll gradients. The samples were centrifuged at 400g for 30 min at room temperature with the brake disabled. The top myelin layer was aspirated and demyelinated immune cells were collected from the 37% and 70% percoll interface with a pipette and washed with 1x HBSS twice, resuspended in PBS and placed in a 96-well v-bottom plate for flow cytometry staining.
Peripheral and central immune cell staining was performed similarly as previously published protocols. In brief, immune cells were washed and resuspended in PBS, then incubated for 30 min at room temperature in LIVE/DEAD Fixable Red Dead cell stain (ThermoFisher Scientific Cat#L23102; 1:2000). Following two washes in PBS, Fc receptors were blocked with anti-rat CD32 Fc block diluted 1:100 in FACS buffer (1mM EDTA and 0.1% sodium azide in PBS) for 15 min at 4°C. PBMCs were stained for separate myeloid and lymphoid panels and brain immune cells stained with an antibody panel to identify microglia, monocytes and lymphocytes (Table S1-S3). Fluorophore conjugated antibodies diluted with FACS buffer were incubated at 4 °C for 20 min. Cells stained for surface myeloid markers were fixed in 1% PFA for 25 min and washed in FACS.
PBMCs stained with lymphoid panel were further probed intracellularly for transcriptional marker Foxp3 to label […] T cells. […] Then washed and resuspended in FACs buffer. All samples had 10uL of AccuCheck Counting beads (ThermoFisher Cat#PCB100) added to final suspension and cells were run on a LSRII Instrument (BD Biosciences, Franklin Lakes, NJ) with FACSDiva software (BD Biosciences). Results were analyzed using FlowJo 10.8.1 software and brain immune populations of monocytes (classical and non-classical), lymphocytes (CD4 + and CD8+) or microglia and PBMC populations defined by specific strategies (Figure S1-S3). […]

[3] = test system: CD206, YM1, TGFb, TNF, CB2 gene expression; test: qPCR of immune markers in frontal cortex and PBMCs; assay type: in vivo; conditions: rat low cohort
Method: PBMCs were isolated from blood of low cohort rats at euthanasia (8 weeks) for qPCR analysis of immune genes and from blood of high cohort rats at baseline, 4 and 8 weeks after AAV2/5-human WT Asyn and evaluated with flow cytometry for a longitudinal immunophenotype assessment. Red blood cells were lysed using 1x RBC lysis buffer (Biolegend Cat#420301) for 5 min in the dark. Lysis buffer was neutralized by adding 1x HBSS (Gibco Cat#14175095). Cells were pelleted by centrifugation at 400g for 5 min, supernatant removed, and cells washed with HBSS. For the high cohort, cells were resuspended in 200μL of PBS and transferred to a 96-well v-bottom plate for flow cytometry staining. For low cohort, 10,000 cells were lysed in 600μL RLT lysis buffer (Qiagen Cat#79216) + 1% BME, further homogenized by centrifugation through a QiaShredder column (2 min at 21,130g). Lysate was then stored at -80°C and later processed for RNA extraction.
Total RNA was extracted from the frontal cortex and from PBMCs of low cohort animals and standardized across all samples and groups. In short, tissue was suspended in Trizol and homogenized with a TissueLyser (Retsch). Homogenate was incubated with chloroform and RNA separated by centrifugation of […] for 15 min at 4°C. RNA was further isolated with a RNAeasy mini kit (Qiagen). The RNA (1 µg) was then reverse transcribed to cDNA and analyzed with primers (Integrated DNA Technologies) for pro-inflammatory and anti-inflammatory immune markers and CB2 (Table 1) by qRT-PCR using protocols previously published. Resulting threshold cycle (Ct) values were analyzed by the 2-ΔΔCt method using the AAV2/5-hαsyn + vehicle as the control group and normalized to GAPDH for PBMCs and HPRT1 for frontal cortex as the housekeeping genes.

[4] = 4 weeks, high cohort, treatment effect vs vehicle
[5] = 8 weeks, high cohort, treatment effect
[6] = 8 weeks, high cohort, vs control
[7] = 8 weeks, high cohort, vs vehicle
[8] = frontal cortex, relative to vehicle

With `O=C(c1ccccc1)c1cc(O)c(-c2cc(Cl)cc(Cl)c2)c(O)c1` [SMM-189] the “total human Asyn in substantia nigra, optical density” value ([1]; clone 4B12, vs vehicle) was “not different”, the “pS129-ir optical density in substantia nigra, normalized to vehicle” value ([1]; lesioned nigra) was “reduced” and the “proteinase-K resistant Asyn in substantia nigra, optical density” value ([1]; vs vehicle) was “decreased”. For the same compound, the “CD3+ lymphocytes parent population in brain” value ([2]; 4 weeks, high cohort) was “No CD3 + lymphocytes parent population differences”, the “CD8 T cell frequencies in brain” value ([2]; 4 weeks, high cohort) was “not significantly different” and the “MHCII MFI on microglia” value ([2]; 4 weeks, high cohort) was “no changes”. For the same compound, the “classical or non-classical monocyte subset frequencies in brain” value ([2]; 4 weeks, high cohort) was “no treatment differences”, the frequency of microglia ([2]; 4 weeks, high cohort) was “no difference” and the “frequencies of CD4+ T cells in brain” value ([2]; 4 weeks, high cohort, treatment effect) was “overall reduction”. The “frequency of CD45hiCD11b myeloid/monocytes in brain” value [2, 4] was “reduced”, the “frequency of CD163+ macrophages in brain” value [2, 4] was “reduced” and the “MFI of CD11b on microglia” value ([2]; 4 weeks, unlesioned hemispheres, vs control) was “reduced”. The “intensity of MHCII on microglia” value ([2]; 8 weeks, high cohort) was “no different”, the “microglial MFI of CD11b” value [2, 5] was “elevated” and the “microglial MFI of CD172a” value [2, 5] was “elevated”. For the same compound, the “brain population frequency of lymphocytes (CD45+CD11b-)” value [2, 6] was “did not affect”, the “brain population frequency of macrophages (CD11b+CD163+)” value [2, 6] was “did not affect” and the “brain population frequency of microglia (CD45loCD11b+)” value [2, 6] was “did not affect”. For the same compound, the “brain population frequency of monocytes (CD45hiCD11b+)” value [2, 6] was “did not affect”, the “CD4+ lymphocytes in brain” value [2, 7] was “increased” and the “CD8+ lymphocytes in brain” value [2, 7] was “decreased”. For the same compound, the “frequency of MHCII+ classical (CD43-) monocytes in brain” value ([2]; 8 weeks, lesioned hemispheres, vs vehicle) was “elevated”, the TGFβ gene expression ([3]; PBMCs, relative to vehicle) was “increased” and the TNF transcript ([3]; endpoint PBMCs, relative to vehicle) was “decreased”. The CB2 gene expression ([3]; frontal cortex and PBMCs, between groups) was “not different”, the CD206 gene expression [3, 8] was “increased” and the YM1 gene expression [3, 8] was “increased”.
